The record followed here is patent US7429564B2, “Oral insulin therapy” (Emisphere Technologies, Inc., priority 2002, dated 2008).

The subject of one data set is blood glucose. Details: species or system Sprague-Dawley rats. The following applies: rat, in vivo, 0.05 mg/kg. As for the experimental part:
An aqueous insulin stock solution was prepared (at pH 7.5) with a final insulin concentration of approximately 15 mg/mL. Delivery agents were dissolved in water with subsequent additions of sodium hydroxide or hydrochloric acid to both dissolve the delivery agent and to titrate the dosing solution to pH 7.5-8.5. The required amount of insulin was added to the delivery agent solution before dosing.
Insulin levels in the rats were assayed using the Insulin ELISA Test Kit [DSL, Webster, Tex. Cat. #DSL-10-1600]. The assay covered the range 3.125 to 250 mU/mL. Blood glucose levels in the rats were measured using a glucometer, One-Touch Basic Blood Glucose Monitoring System, manufactured by Lifescan Inc. (Milpitas, Calif.).
A total of 60 male Sprague-Dawley rats were fasted for 24 hours and then anesthetized with Thorazine (1.5 mg/kg, im) and Ketamine (44 mg/kg, im). They were then divided into the following 5 treatment groups: • 1. H2O (p.o. 1 mL/kg) • 2. Carrier (p.o., 1 mL/kg; 200 mg/kg) • 3. Insulin (p.o., 1 ml/kg; 0.5 mg/kg) • 4. Insulin and Carrier (p.o., 1 ml/kg; 0.5 mg/kg Insulin and 200 mg/kg 1182) • 5. Insulin (s.c., 0.05 mg/kg) • There were twelve animals per group, with three being sacrificed at 30, 60, 120 and 180 minutes. For serum insulin and blood glucose monitoring, 0.4 mL of blood was drawn from the tail artery. […]

Data set [1] is described as follows: Delivery agent plasma concentrations in humans after oral delivery agent capsules. The class given is in vivo, human. As for the experimental part:
Delivery agents 1-3 were investigated for their ability to penetrate the GI mucosa. The plasma concentration of each delivery agent was measured in human subjects after oral administration of delivery agent loaded capsules as a measure of each delivery agent's penetration efficiency.
Blood sampling for plasma delivery agent concentration determination (2 mL in sodium heparin tube) were drawn 15 minutes before dosing, and at 5, 10, 15, 30, and 45 minutes and 1, 1.5, 2, 3, 4, 6, 8, and 12 hours post-dose (14 samples per treatment) for delivery agent measurements in all treatment groups.
Two 18-gauge IV lines were situated prior to dosing; one for blood sampling, and the other for potential infusion of 20% glucose for subjects in groups 2 and 3. The subjects in group 1 only had one cannula inserted. The blood samples were centrifuged at 3000 rpm for a period of fifteen minutes at a temperature from about 2° C. to 8° C., within one hour of sample collection. Using a plastic pipette and without disturbing the red cell layer, the plasma from the collection tube was pipetted in duplicate for each analysis, blood glucose, Human Insulin, C-peptide, delivery agent into pre-labeled polypropylene tubes. The samples were stored at −70° C. until analysis.
The indicated doses were ingested by healthy human volunteers and the plasma concentrations of the delivery agents were monitored over time and the area under the curve (AUC) calculated. […] Similarly, oral administration of 800 mg of delivery agent number 3 produced more than a 23 fold greater penetration of the GI mucosa in humans than did oral administration of 750 mg of delivery agent 2 having n equal to 9 alkyl.

Data set [2] is described as follows: Example 8: food effect on 4-CNAB pharmacokinetics, type 1 diabetes patients. The following applies: for AUC / Cmax / Tmax / AUC(0-inf) / half-life: human, plasma; for AUC(0-inf): read-out: Plasma 4-CNAB AUC0-inf; for half-life: read-out: Plasma 4-CNAB t1/2 (converted). The class given is in vivo, human. As for the experimental part:
A single-center, open label, randomized, single dose, 3-way cross-over study was conducted in type 1 diabetes mellitus patients to investigate the effect of food on the absorption and pharmacokinetics of insulin after a single dose of oral 4-CNAB/insulin, and to determine the effect of food on the pharmacodynamics of glucose and C-peptide after a single oral dose of 4-CNAB/insulin.
For diabetic patients, the study consisted of an eligibility screening period, three study periods and a follow-up exam at the conclusion of the last period. The three study periods included the following: administration of single doses of 4-CNAB/insulin followed by fasting (treatment A), followed by an ADA breakfast […] after dosing (treatment B), and followed by an ADA breakfast […] after dosing (treatment C). The study was conducted using an open label, randomized, crossover design with an interval of at least 7 days between treatments. The patients fasted overnight. The type 1 diabetics were randomized to treatment A or […] in periods 1 and 2. In period 3, all diabetics received treatment C. A total of eight type 1 diabetic patients were enrolled. As a control group, two healthy volunteers were enrolled.
The following treatments were administered to the type 1 diabetics according to the randomization schedule (see below) • a) 400 mg 4-CNAB/300 IU insulin followed by fasting; • b) 400 mg 4-CNAB/300 IU insulin followed by an ADA breakfast 30 minutes after dosing; • c) 400 mg 4-CNAB/300 IU insulin followed by an ADA breakfast 20 minutes after dosing.
Blood samples for pharmacokinetic analysis of 4-CNAB and insulin were drawn 30, 15 and 5 minutes prior to and at 10, 20, 30, 40, 50, 60, 75, 90, 105, 120, 150, 180, 210, and 240 minutes after 4-CNAB/insulin administration (17 samples per subject per period). Blood samples for plasma glucose were drawn 30, 15 and 5 minutes prior to and at 10, 20, 30, 40, 50, 60, 75, 90, 105, 120, 150, 180, 210, and 240 minutes after administration (17 samples per subject per period). Blood samples for C-peptide were drawn 30 and 5 minutes prior to and 30, 60, 90, 120, 180 and 240 minutes after administration (8 samples per subject per period).

Setting [3] is: oral, period 0-20 minutes post-dose, Breakfast 20 min post-dose.
The mark [4] stands for this setting: oral, period 0-20 minutes post-dose, Breakfast 30 min post-dose.
[5] abbreviates: oral, period 0-20 minutes post-dose, Fasting.
Where [6] appears, read: oral, period 0-30 minutes post-dose, Breakfast 20 min post-dose.
Setting [7] is: oral, period 0-30 minutes post-dose, Breakfast 30 min post-dose.
The mark [8] stands for this setting: oral, period 0-30 minutes post-dose, Fasting.
The mark [9] stands for this setting: oral, period 0-3 hours post-dose, Breakfast 20 min post-dose.
The mark [10] stands for this setting: oral, period 0-3 hours post-dose, Breakfast 30 min post-dose.
The mark [11] stands for this setting: oral, period 0-3 hours post-dose, Fasting.
Where [12] appears, read: po, 400 mg, 400 mg 4-CNAB/300 IU insulin oral, Breakfast 20 min post-dose.
Setting [13] is: po, 400 mg, 400 mg 4-CNAB/300 IU insulin oral, Breakfast 30 min post-dose.
Where [14] appears, read: po, 400 mg, 400 mg 4-CNAB/300 IU insulin oral, Fasting.

Where two headings read alike, the source gives them in different places.

Turning to “SC insulin: human regular insulin injected subcutaneously (Humulin R or equivalent; Calbiochem insulin in the rat studies)”, in the data set with blood glucose, the “Delay of tmax vs oral” value is given as “about 15 minutes”.
Regarding `O=C(O)CCCNC(=O)c1ccc(Cl)cc1O` [4-CNAB, 4-[(4-chloro, 2-hydroxybenzoyl)amino]butanoic acid], in data set [1] (humans, 800 mg vs 750 mg oral), the “Fold greater penetration of the GI mucosa vs delivery agent 1” value is given as “approximately 13.5 fold”. Besides, the “Fold greater penetration of the GI mucosa vs delivery agent 2” value in data set [1] (humans, 800 mg vs 750 mg oral) is recorded as above 23 fold. The AUC stood at 47500 ng·h/mL in data set [1] (plasma, oral capsules, 800 mg, healthy human volunteers); 2800 ng·h/mL in data set [2] (setting [3]); 2280 ng·h/mL in data set [2] (setting [4]); 2900 ng·h/mL in data set [2] (setting [5]); 6370 ng·h/mL in data set [2] (setting [6]); 5960 ng·h/mL in data set [2] (setting [7]). The AUC in data set [2] (setting [8]) is 6300 ng·h/mL; in data set [2] (setting [9]) it was 16500 ng·h/mL; in data set [2] (setting [10]), 17100 ng·h/mL; in data set [2] (setting [11]) it was 18300 ng·h/mL. In addition, the “Effect of food intake on 4-CNAB pharmacokinetics” value in data set [2] (breakfast 30 or 20 minutes after dosing) was “no effect on the pharmacokinetics of 4-CNAB”. The Cmax in data set [2] (setting [3]) came out at 20600 ng/mL; in data set [2] (setting [4]) it was 18800 ng/mL; in data set [2] (setting [5]) it was 20700 ng/mL; in data set [2] (setting [6]), 24600 ng/mL; in data set [2] (setting [7]), 24000 ng/mL; in data set [2] (setting [8]) it was 21500 ng/mL. The Cmax was determined as 25000 ng/mL in data set [2] (setting [9]); 24000 ng/mL in data set [2] (setting [10]); 21800 ng/mL in data set [2] (setting [11]); 25000 ng/mL in data set [2] (setting [12]); 24000 ng/mL in data set [2] (setting [13]); 21800 ng/mL in data set [2] (setting [14]). For the same molecule, the Tmax in data set [2] (oral, period 0-20 minutes post-dose, Breakfast 20 min post-dose, read-out: Plasma 4-CNAB tmax) was 19.8 min; in data set [2] (oral, period 0-20 minutes post-dose, Breakfast 30 min post-dose, read-out: Plasma 4-CNAB tmax), 19.8 min; in data set [2] (oral, period 0-20 minutes post-dose, Fasting, read-out: Plasma 4-CNAB tmax) it was 19.8 min; in data set [2] (oral, period 0-30 minutes post-dose, Breakfast 20 min post-dose, read-out: Plasma 4-CNAB tmax), 25.2 min; in data set [2] (oral, period 0-30 minutes post-dose, Breakfast 30 min post-dose, read-out: Plasma 4-CNAB tmax), 28.8 min; in data set [2] (oral, period 0-30 minutes post-dose, Fasting, read-out: Plasma 4-CNAB tmax) it was 23.4 min. Besides, the Tmax in data set [2] (oral, period 0-3 hours post-dose, Breakfast 20 min post-dose, read-out: Plasma 4-CNAB tmax) worked out at 27.6 min; in data set [2] (oral, period 0-3 hours post-dose, Breakfast 30 min post-dose, read-out: Plasma 4-CNAB tmax), 30 min; in data set [2] (oral, period 0-3 hours post-dose, Fasting, read-out: Plasma 4-CNAB tmax) it was 26.4 min; in data set [2] (po, 400 mg, 400 mg 4-CNAB/300 IU insulin oral, Breakfast 20 min post-dose, read-out: Plasma 4-CNAB tmax, Median (min-max)), 25.2 min; in data set [2] (po, 400 mg, 400 mg 4-CNAB/300 IU insulin oral, Breakfast 30 min post-dose, read-out: Plasma 4-CNAB tmax, Median (min-max)), 30 min; in data set [2] (po, 400 mg, 400 mg 4-CNAB/300 IU insulin oral, Fasting, read-out: Plasma 4-CNAB tmax, Median (min-max)) it was 25.2 min. Moreover, the AUC(0-inf) amounted to 18000 ng·h/mL in data set [2] (setting [12]), 18400 ng·h/mL in data set [2] (setting [13]) and 20700 ng·h/mL in data set [2] (setting [14]). The half-life in data set [2] (setting [12]) is 39 min; in data set [2] (setting [13]), 42 min; in data set [2] (setting [14]), 51.6 min.
